{"source": "ChEMBL document CHEMBL5543140", "about": "(J Med Chem, 2024)", "key": {"Homo sapiens": {"species_on_record": "Homo sapiens", "assay": "Selectivity ratio, ratio of Ki for human 5-HT2B receptor to human 5-HT2C receptor"}, "[1]": {"target": "5-hydroxytryptamine receptor 6 (Homo sapiens, UniProt P50406)", "sequence (P50406 whole entry)": "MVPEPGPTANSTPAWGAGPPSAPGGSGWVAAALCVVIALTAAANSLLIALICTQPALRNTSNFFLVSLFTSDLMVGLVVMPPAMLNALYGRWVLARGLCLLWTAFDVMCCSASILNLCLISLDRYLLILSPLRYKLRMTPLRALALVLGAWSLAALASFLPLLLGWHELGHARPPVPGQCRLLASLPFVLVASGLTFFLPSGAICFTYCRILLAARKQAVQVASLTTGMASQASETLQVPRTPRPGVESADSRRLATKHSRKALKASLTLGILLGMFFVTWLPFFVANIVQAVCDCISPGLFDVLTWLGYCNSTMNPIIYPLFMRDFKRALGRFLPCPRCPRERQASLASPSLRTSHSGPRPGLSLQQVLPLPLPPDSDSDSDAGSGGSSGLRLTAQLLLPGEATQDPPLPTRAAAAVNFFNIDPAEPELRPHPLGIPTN", "assay": "Displacement of [3H]LSD from 5-HT6 receptor (unknown origin) assessed as inhibition binding at 10 uM relative to control"}, "[2]": {"target": "5-hydroxytryptamine receptor 2B (Homo sapiens, UniProt P41595)", "sequence (P41595 whole entry)": "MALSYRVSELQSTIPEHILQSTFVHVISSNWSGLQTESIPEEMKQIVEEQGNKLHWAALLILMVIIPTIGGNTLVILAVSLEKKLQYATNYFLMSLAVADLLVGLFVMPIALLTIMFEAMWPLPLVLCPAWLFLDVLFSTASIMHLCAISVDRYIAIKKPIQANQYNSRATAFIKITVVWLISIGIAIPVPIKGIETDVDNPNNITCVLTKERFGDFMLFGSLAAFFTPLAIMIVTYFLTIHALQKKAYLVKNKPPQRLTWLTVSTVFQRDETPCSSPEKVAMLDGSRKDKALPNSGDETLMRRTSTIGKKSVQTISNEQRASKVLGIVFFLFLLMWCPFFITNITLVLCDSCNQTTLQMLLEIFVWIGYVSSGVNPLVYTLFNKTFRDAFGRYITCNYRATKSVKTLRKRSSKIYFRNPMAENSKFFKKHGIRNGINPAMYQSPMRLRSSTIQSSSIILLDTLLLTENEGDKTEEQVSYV", "assay": "Agonist activity at human 5-HT2B receptor expressed in CHO cells assessed as maximal IP2 production measured after 30 mins incubation by HTRF assay relative to control", "assay_type": "functional, cell-based", "conditions": "read-out: EC50"}, "[3]": {"target": "Alpha-2A adrenergic receptor (Homo sapiens) (UniProt P08913)", "sequence (P08913 whole entry)": "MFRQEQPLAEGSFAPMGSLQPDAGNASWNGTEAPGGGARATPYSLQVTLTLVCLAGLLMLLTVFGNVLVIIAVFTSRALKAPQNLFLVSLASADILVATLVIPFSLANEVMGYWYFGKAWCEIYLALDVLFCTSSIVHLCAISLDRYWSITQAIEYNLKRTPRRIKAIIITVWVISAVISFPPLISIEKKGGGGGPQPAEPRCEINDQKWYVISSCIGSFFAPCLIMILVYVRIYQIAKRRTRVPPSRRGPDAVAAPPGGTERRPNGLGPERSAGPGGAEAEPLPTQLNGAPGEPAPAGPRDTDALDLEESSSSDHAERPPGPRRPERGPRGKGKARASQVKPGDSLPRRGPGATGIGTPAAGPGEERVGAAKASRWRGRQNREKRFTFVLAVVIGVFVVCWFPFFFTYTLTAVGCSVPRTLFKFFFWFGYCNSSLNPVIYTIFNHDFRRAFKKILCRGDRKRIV", "assay": "Agonist activity at human recombinant adrenergic alpha-2A receptor expressed in CHO-K1 cells co-transfected with 22F-Glosensor assessed as maximal inhibition of cAMP production measured after 30 mins incubation by Microbeta2Micro-plate counter analysis relative to clonidine", "assay_type": "functional, cell-based", "conditions": "filed as agonist"}, "[4]": {"target": "Alpha-2A adrenergic receptor (Homo sapiens, UniProt P08913)", "sequence (P08913 whole entry)": "as above", "assay": "Agonist activity at human recombinant adrenergic alpha-2A receptor expressed in CHO-K1 cells co-transfected with 22F-Glosensor assessed as inhibition of cAMP production measured after 30 mins incubation by Microbeta2Micro-plate counter analysis", "assay_type": "functional, cell-based"}, "Mus musculus [5]": {"tested_on": "Mus musculus", "assay": "Psychedelic effect in sc dosed C57BL/6J mouse assessed as induction of 5-HT2A receptor dependent head-twitch responses by visual observation measured within 10 mins", "assay_type": "functional, organism-based", "conditions": "dose 0.1-3 mg/kg"}, "Mus musculus [6]": {"tested_on": "Mus musculus", "assay": "Psychedelic effect in C57BL/6J mouse assessed as induction of 5-HT2A receptor dependent maximal head-twitch responses by visual observation at 1 mg/kg, sc at 40 mins post- administration", "assay_type": "functional, organism-based"}, "Mus musculus [7]": {"tested_on": "Mus musculus", "assay": "Psychedelic effect in C57BL/6J mouse assessed as induction of 5-HT2A receptor dependent maximal head-twitch responses by visual observation at 1 to 3 mg/kg, sc at 40 mins post- administration measured upto 360 mins", "assay_type": "functional, organism-based", "conditions": "dose 1-3 mg/kg"}, "[8]": {"assay": "Cmax in mouse C57BL/6J brain at 3 mg/kg, po measured after 1 hrs", "assay_type": "ADME, organism-based"}, "Mus musculus [9]": {"tested_on": "Mus musculus", "assay": "Psychedelic effect in C57BL/6J mouse assessed as number of 5-HT2A receptor dependent head-twitch responses by visual observation at 3 mg/kg, sc measured after 24 hrs", "assay_type": "functional"}, "[10]": {"assay": "Ex vivo binding in C57BL/6J mouse brain frontal cortex assessed as specific binding [3H]Cimbi-36 at 1 mg/kg, sc measured after 15 mins by liquid scintillation counting analysis (reference value: 1092 +/- 53)", "assay_type": "functional", "conditions": "0.25 h"}, "[11]": {"assay": "Ex vivo binding in C57BL/6J mouse brain frontal cortex assessed as inhibition of [3H]Cimbi-36 binding at 1 mg/kg, sc measured after 160 mins by liquid scintillation counting analysis (reference value: 0%)", "assay_type": "functional", "conditions": "2.667 h"}, "[12]": {"assay": "Ex vivo binding in C57BL/6J mouse brain frontal cortex assessed as inhibition of [3H]Cimbi-36 binding at 1 mg/kg, sc measured after 300 mins by liquid scintillation counting analysis (reference value: 0%)", "assay_type": "functional", "conditions": "5 h"}, "Mus musculus [13]": {"tested_on": "Mus musculus", "assay": "Induction of neuroplasticity in C57BL/6J mouse assessed as increase in Homer1 mRNA expression in brain frontal cortex at 3 mg/kg, sc single dose by RT-PCR analysis", "assay_type": "functional, organism-based"}, "Hippocampus [14]": {"tested_on": "Hippocampus", "assay": "Induction of neuroplasticity in C57BL/6J mouse assessed as increase in mTOR mRNA expression in brain hippocampus at 3 mg/kg, sc single dose by RT-PCR analysis", "assay_type": "functional, organism-based"}, "Hippocampus [15]": {"tested_on": "Hippocampus", "assay": "Induction of neuroplasticity in C57BL/6J mouse assessed as increase in IGF1 mRNA expression in brain hippocampus at 3 mg/kg, sc single dose by RT-PCR analysis", "assay_type": "functional, organism-based"}, "Hippocampus [16]": {"tested_on": "Hippocampus", "assay": "Induction of neuroplasticity in C57BL/6J mouse assessed as increase in SYN1 mRNA expression in brain hippocampus at 0.3 mg/kg, sc single dose by RT-PCR analysis", "assay_type": "functional, organism-based"}, "Hippocampus [17]": {"tested_on": "Hippocampus", "assay": "Induction of neuroplasticity in C57BL/6J mouse assessed as increase in mTOR mRNA expression in brain hippocampus at 0.3 mg/kg, sc single dose by RT-PCR analysis", "assay_type": "functional, organism-based"}, "Hippocampus [18]": {"tested_on": "Hippocampus", "assay": "Induction of neuroplasticity in C57BL/6J mouse assessed as increase in […] mRNA expression in brain hippocampus at 0.3 mg/kg, sc single dose by RT-PCR analysis", "assay_type": "functional, organism-based"}, "[19]": {"assay": "Metabolic stability in mouse liver S9 fractions assessed as half life", "assay_type": "ADME, subcellular", "conditions": "liver S9 fraction"}, "[20]": {"assay": "Metabolic stability in dog liver S9 fractions assessed as half life", "assay_type": "ADME, subcellular, Canis lupus familiaris", "conditions": "liver S9 fraction"}, "[21]": {"assay": "Metabolic stability in human hepatocytes assessed as half life at 10 uM", "assay_type": "ADME, cell-based, Hepatocyte"}, "[22]": {"assay": "Metabolic stability in rat hepatocytes assessed as half life at 10 uM", "assay_type": "ADME, cell-based, Hepatocyte"}, "[23]": {"assay": "Drug metabolism in rat hepatocytes assessed as formation of sulfoxide with N-acetylation/0-glucuronidations metabolites at 10 uM by HRAMS analysis", "assay_type": "ADME, cell-based, Hepatocyte"}, "[24]": {"assay": "Tmax in Wistar rat plasma at 1 mg/kg, iv measured upto 48 hrs", "assay_type": "ADME, organism-based"}, "[25]": {"assay": "AUCinf in Wistar rat plasma at 1 mg/kg, iv measured upto 48 hrs", "assay_type": "ADME, organism-based"}, "[26]": {"assay": "Tmax in Wistar rat plasma at 5 mg/kg, po measured upto 48 hrs", "assay_type": "ADME, organism-based"}, "[27]": {"assay": "AUCinf in Wistar rat plasma at 5 mg/kg, po measured upto 48 hrs", "assay_type": "ADME, organism-based"}, "[28]": {"assay": "Absolute oral bioavailability in Wistar rat plasma at 5 mg/kg, […] measured upto 48 hrs", "assay_type": "ADME, organism-based"}, "[29]": {"assay": "Cmax in Wistar rat brain at 1 mg/kg, iv measured upto 48 hrs", "assay_type": "ADME, organism-based"}, "[30]": {"assay": "Cmax in Wistar rat brain at 5 mg/kg, po measured upto 48 hrs", "assay_type": "ADME, organism-based"}, "[31]": {"assay": "Drug excretion in Wistar rat urine at 1 mg/kg, iv measured upto 48 hrs", "assay_type": "ADME, organism-based", "conditions": "read-out: Drug excretion"}, "[32]": {"assay": "Half life in male Sprague-Dawley rat brain at 1 mg/kg, iv measured upto 8 hrs by LC-MS/MS analysis", "assay_type": "ADME, organism-based"}, "[33]": {"assay": "Brain to plasma ratio in male Sprague-Dawley rat at 1 mg/kg, iv measured upto 8 hrs by LC-MS/MS analysis", "assay_type": "ADME, organism-based", "conditions": "brain and plasma, read-out: BPR"}, "[34]": {"assay": "Half life in male Sprague-Dawley rat CSF at 1 mg/kg, iv measured upto 8 hrs by LC-MS/MS analysis", "assay_type": "ADME, organism-based, Cerebrospinal fluid"}, "[35]": {"assay": "AUClast in male Sprague-Dawley rat CSF at 1 mg/kg, iv measured upto 8 hrs by LC-MS/MS analysis", "assay_type": "ADME, organism-based, Cerebrospinal fluid"}, "Brain": {"tested_on": "Brain", "assay": "Drug binding in male C57BL/6J mouse brain homogenate at 1 mg/kg, iv measured upto 8 hrs by LC-MS/MS analysis", "assay_type": "ADME, organism-based", "conditions": "in vivo"}, "[36]": {"assay": "Half life in beagle dog at 0.4 mg/kg, iv measured upto 24 hrs", "assay_type": "ADME, organism-based, Canis lupus familiaris", "conditions": "in vivo"}, "[37]": {"assay": "Volume of distribution at steady state in beagle dog at 0.4 mg/kg, iv measured upto 24 hrs", "assay_type": "ADME, organism-based, Canis lupus familiaris", "conditions": "in vivo, read-out: Vdss"}, "[38]": {"assay": "MRTinf in beagle dog at 0.4 mg/kg, iv measured upto 24 hrs", "assay_type": "ADME, organism-based, Canis lupus familiaris", "conditions": "in vivo"}, "[39]": {"assay": "Tmax in beagle dog at 2 mg/kg, po measured upto 24 hrs", "assay_type": "ADME, organism-based, Canis lupus familiaris", "conditions": "in vivo"}, "[40]": {"assay": "Half life in beagle dog at 2 mg/kg, po measured upto 24 hrs", "assay_type": "ADME, organism-based, Canis lupus familiaris", "conditions": "in vivo"}}, "note": "pEC50: −log10 of the molar value. Calls of active or inactive are those of the source. No cut-off for these calls is given here.", "data": [{"smiles": "COc1cc([Se]C(F)(F)F)c(OC)cc1CCN.Cl", "values": [{"measurement": "Ratio Ki", "setting": "Homo sapiens", "result": 12}, {"measurement": "inhibition", "setting": "[1]", "result": 90, "unit": "%"}, {"measurement": "pEC50", "setting": "[2]", "result": 8.14}, {"measurement": "Emax", "setting": "[3]", "result": 56, "unit": "%"}, {"measurement": "pEC50", "setting": "[4]", "result": 6.90}, {"measurement": "Activity", "setting": "Mus musculus [5]", "result": "Dose-Dependent Effect"}, {"measurement": "Activity", "setting": "Mus musculus [6]", "result": "Active"}, {"measurement": "Activity", "setting": "Mus musculus [7]", "result": "Active"}, {"measurement": "Cmax", "setting": "[8]", "result": 2370, "unit": "ng/g"}, {"measurement": "Activity", "setting": "Mus musculus [9]", "result": 25}, {"measurement": "Activity", "setting": "[10]", "result": 971}, {"measurement": "inhibition in vivo at 1 mg/kg", "setting": "[11]", "result": 33, "unit": "%"}, {"measurement": "inhibition in vivo at 1 mg/kg", "setting": "[12]", "result": 22, "unit": "%"}, {"measurement": "Activity", "setting": "Mus musculus [13]", "result": "Active"}, {"measurement": "Activity", "setting": "Hippocampus [14]", "result": "inactive"}, {"measurement": "Activity", "setting": "Hippocampus [15]", "result": "inactive"}, {"measurement": "Activity", "setting": "Hippocampus [16]", "result": "inactive"}, {"measurement": "Activity", "setting": "Hippocampus [17]", "result": "inactive"}, {"measurement": "Activity", "setting": "Hippocampus [18]", "result": "inactive"}, {"measurement": "half-life", "setting": "[19]", "result": "> 2", "unit": "h"}, {"measurement": "half-life", "setting": "[20]", "result": "> 2", "unit": "h"}, {"measurement": "half-life at 10 µM", "setting": "[21]", "result": 16, "unit": "h"}, {"measurement": "half-life at 10 µM", "setting": "[22]", "result": 16, "unit": "h"}, {"measurement": "Drug metabolism", "setting": "[23]", "result": "Metabolite_Detected"}, {"measurement": "Tmax", "setting": "[24]", "result": 4.98, "unit": "min"}, {"measurement": "AUC(0-inf)", "setting": "[25]", "result": 0.0507, "unit": "µg·h/mL"}, {"measurement": "Tmax", "setting": "[26]", "result": 0.5, "unit": "h"}, {"measurement": "AUC(0-inf)", "setting": "[27]", "result": 0.0497, "unit": "µg·h/mL"}, {"measurement": "bioavailability", "setting": "[28]", "result": 19.1, "unit": "%"}, {"measurement": "Cmax", "setting": "[29]", "result": 0.89, "unit": "µg/mL"}, {"measurement": "Cmax", "setting": "[30]", "result": 0.402, "unit": "µg/mL"}, {"measurement": "dose excreted at 48 h", "setting": "[31]", "result": 0.07, "unit": "%"}, {"measurement": "half-life", "setting": "[32]", "result": 1.34, "unit": "h"}, {"measurement": "Kp at 8 h", "setting": "[33]", "result": 15.6}, {"measurement": "half-life", "setting": "[34]", "result": 1.26, "unit": "h"}, {"measurement": "AUC(0-t) at 8 h", "setting": "[35]", "result": 0.0499, "unit": "µg·h/mL"}, {"measurement": "Activity", "setting": "Brain", "result": "> 98", "unit": "%"}, {"measurement": "half-life", "setting": "[36]", "result": 4.31, "unit": "h"}, {"measurement": "Vd", "setting": "[37]", "result": 5.29, "unit": "L/kg"}, {"measurement": "MRT inf", "setting": "[38]", "result": 5.58, "unit": "h"}, {"measurement": "Tmax", "setting": "[39]", "result": 2, "unit": "h"}, {"measurement": "half-life", "setting": "[40]", "result": 6.78, "unit": "h"}]}]}
